Results published in patent US20230011869A1 (Hoffmann-La Roche Inc., priority 2018, published 2023).
Counter-ions that a name gives are not always drawn. Like-named read-outs stand apart in the source and are kept apart here.

Test system: Acinetobacter baumannii ATCC17978
Test: Antimicrobial susceptibility testing: 90% growth inhibitory concentration (IC90) determination, Iso-Sensitest broth
Type: cell-based
In short: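 A. baumannii ATCC17978 grown in Iso-Sensitest broth across 10 compound concentrations at 35±2 °C.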

[1] = Acinetobacter baumannii, ATCC17978, 16 h, read-out: ATCC17978 IC90, 90% growth inhibitory concentration, Acinetobacter baumannii ATCC17978, Iso-Sensitest broth, OD 600 nm over 16 h
[2] = 90% growth inhibitory concentration, Acinetobacter baumannii ATCC17978, Iso-Sensitest broth, OD 600 nm over 16 h, read-out: ATCC17978 IC90

IC90 [2] | SMILES | IC90 [1]
 | CCc1cc(Nc2nccn3c(-c4ccc(OCC#N)c(F)c4F)cnc23)ccc1C(=O)N1CCC(C(=O)N2CCN[C@@H](CO)C2)CC1 [Example 540, 2-[4-[8-[3-ethyl-4-[4-[(3R)-3-(hydroxymethyl)piperazine-1-carbonyl]piperidine-1-carbonyl]anilino]imidazo[1,2-a]pyrazin-3-yl]-2,3-difluorophenoxy]acetonitrile; 2,2,2-trifluoroacetic acid] | 90 nM
 | Cc1cc(Nc2nccn3c(-c4ccc(OC(F)F)cc4)cnc23)ccc1C(=O)N1CCN(CCN2CCCCC2)CC1 [Example 355, [4-[[3-[4-(difluoromethoxy)phenyl]imi-dazo[1,2-a]pyrazin-8-yl]amino]-2-methylphenyl]-[4-(2-piperidin-1-ylethyl)piperazin-1-yl]methanone] | 260 nM
 | COc1ccc(-c2cnc3c(Nc4ccc(C(=O)N5CCNC6(CC6)C5)c(C)c4)nccn23)cc1F [Example 416, 4,7-diazaspiro[2.5]octan-7-yl-[4-[[3-(3-fluoro-4-methoxyphenyl)imidazo[1,2-a]pyrazin-8-yl]amino]-2-methylphenyl]methanone; 2,2,2-trifluoroacetic acid] | 800 nM
1000 nM | Cc1cc(Nc2nccn3c(-c4ccc(OCCCC#N)c(F)c4F)cnc23)ccc1C(=O)N1CCC(CN)CC1 [Example 120, 4-(4-(8-((4-(4-(aminomethyl)piperidine-1-carbonyl)-3-methylphenyl)amino)imidazo[1,2-a]pyrazin-3-yl)-2,3-difluorophenoxy)butanenitrile] | 
96 nM | COc1ccc(-c2cnc3c(Nc4ccc(C(=O)N5CCN(C(=O)[C@@H]6C[C@@H](O)CN6)CC5)c(C)c4)nccn23)c(F)c1F [Example 471, [4-[[3-(2,3-difluoro-4-methoxyphenyl)imidazo[1,2-a]pyrazin-8-yl]amino]-2-methylphenyl]-[4-[(2S,4R)-4-hydroxypyrrolidine-2-carbonyl]piperazin-1-yl]methanone] | 
120 nM | Cc1cc(Nc2nccn3c(-c4ccc(OC(F)F)cc4)cnc23)ccc1C(=O)N1CCC(C(N)=O)CC1 [Example 4, 1-(4-((3-(4-(difluoromethoxy)phenyl)imidazo[1,2-a]pyrazin-8-yl)amino)-2-methylbenzoyl)piperidine-4-carboxamide] | 
350 nM | COc1ccc(-c2cnc3c(Nc4ccc(C(=O)N5CCC(O)(CN)CC5)c(C)c4)nccn23)cc1F [Example 71, [4-(aminomethyl)-4-hydroxypiperidin-1-yl]-[4-[[3-(3-fluoro-4-methoxyphenyl)imidazo[1,2-a]pyrazin-8-yl]amino]-2-methylphenyl]methanone;2,2,2-trifluoroacetic acid] | 
 | Cc1cc(Nc2nccn3c(-c4ccc(OC(F)F)cc4)cnc23)ccc1C(=O)N1CCN(C(=O)c2ccc(C(=O)O)cc2)CC1 [Example 280, 4-[4-[4-[[3-[4-(difluoromethoxy)phenyl]imi-dazo[1,2-a]pyrazin-8-yl]amino]-2-methylbenzoyl]piperazine-1-carbonyl]benzoic acid] | 4500 nM
320 nM | COc1ccc(-c2cnc3c(Nc4ccc(C(=O)N5CCC(N6CCCC(CO)C6)CC5)c(C)c4)nccn23)cc1F (stereo not shown) [Example 390, [4-[[3-(3-fluoro-4-methoxyphenyl)imidazo[1,2-a]pyrazin-8-yl]amino]-2-methylphenyl]-[4-[3-(hydroxymethyl)piperidin-1-1-yl)piperidin-1-yl]methanone] | 
180 nM | CNCC(=O)N1CCN(C(=O)c2ccc(Nc3nccn4c(-c5ccc(OC)c(F)c5)cnc34)cc2C)CC1 [Example 224, 1-(4-(4-((3-(3-fluoro-4-methoxyphenyl)imidazo[1,2-a]pyrazin-8-yl)amino)-2-methylbenzoyl)piperazin-1-yl)-2-(methylamino) ethanone hydrochloride] | 
3600 nM | Cc1cc(Nc2nccn3c(-c4ccc(OCc5ccccc5)c(F)c4F)cnc23)ccc1C(=O)N1CCC(CN)CC1 [Example 126, [4-(aminomethyl)-1-piperidyl]-[4-[[3-(4-benzyloxy-2,3-difluoro-phenyl)imidazo[1,2-a]pyrazin-8-yl]amino]-2-methyl-phenyl]methanone formate] | 
 | COc1ccc(-c2cnc3c(Nc4ccc(C(=O)N5CCC(C(=O)NCC6(O)CCNC6)CC5)c(C)c4)nccn23)cc1F (stereo not shown) [Example 54, 1-(4-((3-(3-fluoro-4-methoxyphenyl)imidazo[1,2-a]pyrazin-8-yl)amino)-2-methylbenzoyl)-N-((3-hydroxypyrrolidin-3-yl)methyl)piperidine-4-carboxamide 2,2,2-trifluoroacetate] | 370 nM
370 nM | COc1ccc(-c2cnc3c(Nc4ccc(C(=O)N5CCC(C(=O)N6C[C@H](O)[C@@H](O)[C@H](O)[C@H]6CO)CC5)c(C)c4)nccn23)c(F)c1F [Example 566, (1-(4-((3-(2,3-difluoro-4-methoxyphenyl)imidazo[1,2-a]pyrazin-8-yl)amino)-2-methylbenzoyl)piperidin-4-yl)((2R,3R,4R,5S)-3,4,5-trihydroxy-2-(hydroxymethyl)piperidin-1-yl)methanone] | 
4300 nM | COc1ccc(-c2cnc3c(Nc4ccc(C(=O)N5CCCN(C)CC5)c(C)c4)nccn23)cc1 [Example 383, [4-[[3-(4-methoxyphenyl)imidazo[1,2-a]pyrazin-8-yl]amino]-2-methylphenyl]-(4-methyl-1,4-diazepan-1-yl)methanone] | 
 | COc1ccc(-c2cnc3c(Nc4ccc(C(=O)N5CCN(C(=O)[C@@H]6C[C@@H](OC(=O)[C@@H](N)CCCNC(=N)N)CN6)CC5)c(C)c4)nccn23)c(F)c1F [Example 550, [(3R,5S)-5-[4-[4-[[3-(2,3-difluoro-4-methoxy-phenyl)imidazo[1,2-a]pyrazin-8-yl]amino]-2-methyl-benzoyl]piperazine-1-carbonyl]pyrrolidin-3-yl] 2-amino-5-guanidino-pentanoate formate] | 153 nM
 | CC[C@@]1(O)CN[C@H](C(=O)N2CCN(C(=O)c3ccc(Nc4nccn5c(-c6ccc(OC)c(F)c6F)cnc45)cc3C)CC2)C1 [Example 456, [4-[[3-(2,3-difluoro-4-methoxyphenyl)imidazo[1,2-a]pyrazin-8-yl]amino]-2-methylphenyl]-[4-[(2S,4S)-4-ethyl-4-hydroxypyrrolidine-2-carbonyl]piperazin-1-yl]methanone; formic acid] | 68 nM
120 nM | Cc1cc(Nc2nccn3c(-c4ccc(OCC#N)c(F)c4F)cnc23)ccc1C(=O)N1CCC(CN)CC1 [Example 31, 2-[4-[8-[4-[4-(aminomethyl)piperidine-1-carbonyl]-3-methyl-anilino]imidazo[1,2-a]pyrazin-3-yl]-2,3-difluoro-phenoxy]acetonitrile;2,2,2-trifluoroacetic acid] | 
2400 nM | COc1ccc(-c2cnc3c(Nc4ccc(C(=O)N5CCC(C(=O)N6CCN(C)C(C(=O)O)C6)CC5)c(C)c4)nccn23)c(F)c1F (stereo not shown) [Example 273, 4-[1-[4-[[3-(2,3-difluoro-4-methoxyphenyl)imidazo[1,2-a]pyrazin-8-yl]amino]-2-methylbenzoyl]piperidine-4-carbonyl]-1-methylpiperazine-2-carboxylic acid] | 
1100 nM | COc1ccc(-c2cnc3c(Nc4ccc(C(=O)N5CC[C@@H](N)[C@@H](O)C5)c(C)c4)nccn23)cc1F [Example 423, [(3S,4R)-4-amino-3-hydroxypiperidin-1-yl]-[4-[[3-(3-fluoro-4-methoxyphenyl)imidazo[1,2-a]pyrazin-8-yl]amino]-2-methylphenyl]methanone; hy-drochloride] | 
830 nM | Cc1cc(Nc2nccn3c(-c4ccc(OC(F)F)cc4)cnc23)ccc1C(=O)N1CC[C@@H](C(=O)N2CCNCC2)[C@H](O)C1 (racemic) [Example 438, [4-[[3-[4-(difluoromethoxy)phenyl]imi-dazo[1,2-a]pyrazin-8-yl]amino]-2-methylphenyl]-[rac-(3R,4S)-3-hydroxy-4-(piperazine-1-carbonyl)piperidin-1-yl]methanone; 2,2,2-trifluoroacetic acid] | 
 | CCC[C@@H](N)C(=O)N1CCN(C(=O)c2ccc(Nc3nccn4c(-c5ccc(OC(F)F)cc5)cnc34)cc2C)CC1 [Example 342, (2R)-2-amino-1-[4-[4-[[3-[4-(difluoromethoxy)phenyl]imi-dazo[1,2-a]pyrazin-8-yl]amino]-2-methylbenzoyl]piperazin-1-yl]pentan-1-one; hydrochloride] | 550 nM
 | Cc1cc(Nc2nccn3c(-c4ccc(OC(F)F)cc4)cnc23)ccc1C(=O)N1CCN(C(=O)[C@H](N)C2CC2)CC1 [Example 260, (2R)-2-amino-2-cyclopropyl-1-[4-[4-[[3-[4-(difluoromethoxy)phenyl]imi-dazo[1,2-a]pyrazin-8-yl]amino]-2-methylbenzoyl]piperazin-1-yl]ethanone; hydrochloride] | 1000 nM
2200 nM | CCc1cc(Nc2nccn3c(-c4ccc(OC)c(F)c4)cnc23)ccc1C(=O)N1CCC(C(=O)O)CC1 [Example 241, 1-(2-Ethyl-4-((3-(3-fluoro-4-methoxyphenyl)imidazo[1,2-a]pyrazin-8-yl)amino)benzoyl)piperidine-4-carboxylic acid] | 
 | Cc1cc(Nc2nccn3c(-c4ccc(OC(F)F)cc4)cnc23)ccc1C(=O)N1CCN(C(=O)C2=CCNCC2)CC1 [Example 447, [4-[[3-[4-(difluoromethoxy)phenyl]imi-dazo[1,2-a]pyrazin-8-yl]amino]-2-methylphenyl]-[4-(1,2,3,6-tetrahydropyridine-4-carbonyl)piperazin-1-yl]methanone; hydrochloride] | 2000 nM
 | Cc1cc(Nc2nccn3c(-c4ccc(OC(F)F)cc4)cnc23)ccc1C(=O)N1CCC2(CC1)CNC2 [Example 360, 2,7-diazaspiro[3.5]nonan-7-yl-[4-[[3-[4-(difluoromethoxy)phenyl]imi-dazo[1,2-a]pyrazin-8-yl]amino]-2-methylphenyl]methanone; hy-drochloride] | 420 nM
